Experimental data: patent US20090023733A1, “Piperidine Derivatives, Their Process for Preparation, Their Use as Therapeutic Agents and Pharmaceutical Compositions Containing Them” (priority 2006, published 2009)

Legend:
[1] = molecular target: T1, human recombinant CCR3 receptors (Homo sapiens, UniProt P51677); assay: Compound affinity at human recombinant CCR3 receptors by competition of [3H]-4-(2,4-dichloro-3-methylphenoxy)-1'-[4-(methylsulfonyl)benzoyl]-1,4'-bipiperidine, CHO-K1 cell membranes; assay type: binding; settings: mean pKi (Cheng-Prussof correction of pIC50), minimum of 2 experiments, recombinant human CCR3, 2 nM radioligand, 2 h at 37° C.
T1 construct: expressed in transfected cells
T1 sequence (P51677 1-355): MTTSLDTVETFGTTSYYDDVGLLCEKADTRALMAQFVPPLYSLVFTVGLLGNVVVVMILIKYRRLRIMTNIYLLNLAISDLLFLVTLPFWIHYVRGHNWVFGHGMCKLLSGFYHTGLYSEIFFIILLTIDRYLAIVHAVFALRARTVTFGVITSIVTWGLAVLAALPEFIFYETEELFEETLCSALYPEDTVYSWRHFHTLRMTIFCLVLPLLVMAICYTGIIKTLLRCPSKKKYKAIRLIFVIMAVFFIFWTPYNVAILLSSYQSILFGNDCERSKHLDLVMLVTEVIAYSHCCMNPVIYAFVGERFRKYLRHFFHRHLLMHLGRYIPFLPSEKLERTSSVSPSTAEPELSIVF
Experimental: Determination of Compound Affinity at Human Recombinant CCR3 Receptors Assessed By Competition Of [^3H]-4-(2,4-dichloro-3-methylphenoxy)-1′-[4-(methylsulfonyl)benzoyl]-1,4′-bipiperidine for CHO—K1 Cell Membranes In Vitro
Membranes, prepared from CHO—K1 cells stably expressing recombinant human CCR3, suspended in assay buffer (50 mM Tris-Base, pH 7.4; containing sodium chloride (100 mM) and magnesium chloride (2 mM)) were incubated in the presence of 2 nM [^3H]-4-(2,4-dichloro-3-methylphenoxy)-1′-[4-(methylsulfonyl)benzoyl]-1,4′-bipiperidine, along with vehicle (1% (v/v) DMSO), 4-(4-chloro-3-methylphenoxy)-1′-[2-(methylsulfonyl)benzoyl]-1,4′-bipiperidine (to define non-specific binding) or test compound for 2 h at 37° C. in round bottomed 96-well plates. The plates were then filtered onto GF/B filter plates, pre-soaked for 1 hour in plate-coating solution (0.3% (w/v) polyethylenimine, 0.2% (w/v) BSA in de-ionised water), using a 96-well plate Tomtec cell harvester. Four washes (250 μL) with wash buffer (50 mM Tris-Base, pH 7.4 containing sodium chloride (500 mM) and magnesium chloride (2 mM)) were performed at 4° C. to remove unbound radioactivity. Plates were dried and MicroScint-O (50 μL) was added to each well. The plates were sealed (TopSeal A) and filter-bound radioactivity was measured with a scintillation counter (TopCount, Packard BioScience) using a 1 minute counting protocol.
Specific binding was determined from values of the control wells minus the values for the NSB wells for each assay plate. pIC50 values were calculated using a four parameter logistic fit (where pIC50 is defined as the negative logarithm of the concentration of compound required for 50% reduction in specific [^3H]-4-(2,4-dichloro-3-methylphenoxy)-1′-[4-(methylsulfonyl)benzoyl]-1,4′-bipiperidine binding). Data were presented as mean pKi values (calculated by applying a Cheng-Prussof correction to pIC50 values) from a minimum of 2 separate experiments.

[2] = Determination of intrinsic clearance with human liver microsomes; assay type: in vitro ADME; settings: human liver microsomes 1 mg protein/ml, NADPH, pH 7.4; CLint=ln 2/T1/2
Experimental: Determination of Intrinsic Clearance with Human Liver Microsomes
Frozen human liver microsomes (BD Gentest, Oxford) were defrosted and were then diluted with 0.1 M pH 7.4 phosphate buffer at 4° C. to 1 mg protein/ml. 0.45 mL aliquots of the microsome suspension were dispensed into flat-bottomed vials (1 per compound) and were allowed to come to room temperature (5 min). During the warming time, 5 μL of solution of each test compound (typically 100 μM in DMSO) was dispensed into separate vials resulting in a final DMSO concentration of 1%. 50 μL of a 10 mM solution of NADPH in phosphate buffer ([…] pH 7.4, 37° C.) was added to each vial to initiate metabolism.
50 μL Aliquots of the mixtures were removed at measured intervals and were immediately quenched by addition to 100 μL of methanol cooled in ice. The quenched samples were kept cold (at −20° C. or less) for at least 1 h and were then centrifuged to remove protein.
The supernatant solution was analysed using quantitative LCMS for the presence of test compound. From the concentrations of test compound at different time points a T1/2 may be calculated which may be converted to an intrinsic clearance using the equation: CLint=ln 2/T1/2.

Row | SMILES | Ki [1] [nM] | CLint scaled at 1 µM [2] [mL/min/kg]
1 | O=C(CSc1ccccc1C(=O)O)NC1CCN(Cc2ccc(Cl)c(Cl)c2)CC1 [Example 1, 2-[(2-{[1-(3,4-Dichlorobenzyl)piperidin-4-yl]amino}-2-oxoethyl)thio]benzoic acid] | 251 | < 3
2 | O=C(CSc1cccc(C(=O)O)c1)NC1CCN(Cc2ccc(Cl)c(Cl)c2)CC1 [Example 4, 3-[(2-{[1-(3,4-Dichlorobenzyl)piperidin-4-yl]amino}-2-oxoethyl)thio]benzoic acid] | 12.6 | < 3
3 | O=C(CSc1ccc(C(=O)O)cc1)NC1CCN(Cc2ccc(Cl)c(Cl)c2)CC1 [Example 7, 4-[(2-{[1-(3,4-Dichlorobenzyl)piperidin-4-yl]amino}-2-oxoethyl)thio]benzoic acid] | 6.31 | < 3
4 | O=C(CSc1ccc(C(=O)O)cc1CN1CCOCC1)NC1CCN(Cc2ccc(Cl)c(Cl)c2)CC1 [Example 18, 4-[(2-{[1-(3,4-Dichlorobenzyl)piperidin-4-yl]amino}-2-oxoethyl)thio]-3-(morpholin-4-ylmethyl)benzoic acid] | 12.6 | 30
